Assay results published in patent publication US6825340B2, “Methods and reagents for inactivating ribonucleases” (Ambion, Inc., priority 1998, dated 2004).
“Also recorded” adds a separate entry of the source.

Legend:
SP6 RNA polymerase = molecular target: T1, SP6 RNA polymerase (Enterobacteria phage SP6, UniProt P06221); assay: In vitro transcription reaction (MAXIscript kit), UTP[α-32P] incorporation; assay type: biochemical; conditions: 20 mM reducing reagent
T1 construct: purchased Ambion, Inc
T1 sequence (P06221 1-874): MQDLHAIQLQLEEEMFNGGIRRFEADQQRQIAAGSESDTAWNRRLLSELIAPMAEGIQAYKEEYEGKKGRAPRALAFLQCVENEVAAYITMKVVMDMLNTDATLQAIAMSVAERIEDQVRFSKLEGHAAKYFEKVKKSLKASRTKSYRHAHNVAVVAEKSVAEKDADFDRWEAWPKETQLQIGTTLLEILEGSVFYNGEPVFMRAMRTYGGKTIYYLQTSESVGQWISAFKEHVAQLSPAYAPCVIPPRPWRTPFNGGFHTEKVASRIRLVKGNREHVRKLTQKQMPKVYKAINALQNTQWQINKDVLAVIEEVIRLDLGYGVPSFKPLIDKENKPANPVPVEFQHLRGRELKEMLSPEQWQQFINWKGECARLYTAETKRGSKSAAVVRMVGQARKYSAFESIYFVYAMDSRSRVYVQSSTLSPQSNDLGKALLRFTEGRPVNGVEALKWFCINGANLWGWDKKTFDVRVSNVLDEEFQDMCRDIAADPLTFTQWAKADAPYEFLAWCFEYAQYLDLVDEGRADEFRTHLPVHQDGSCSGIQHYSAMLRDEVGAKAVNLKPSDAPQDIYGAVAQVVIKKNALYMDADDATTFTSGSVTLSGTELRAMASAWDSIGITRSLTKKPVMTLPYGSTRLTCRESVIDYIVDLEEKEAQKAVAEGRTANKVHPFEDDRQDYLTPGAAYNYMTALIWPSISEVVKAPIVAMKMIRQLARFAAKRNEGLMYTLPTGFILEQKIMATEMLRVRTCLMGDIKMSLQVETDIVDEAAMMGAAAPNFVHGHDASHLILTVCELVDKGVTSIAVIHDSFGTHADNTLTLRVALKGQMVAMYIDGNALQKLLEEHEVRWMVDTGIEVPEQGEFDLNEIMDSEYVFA
Procedure: (§1) FIG. 3. […] Transcriptions were performed with T7, T3 and SP6 RNA polymerase in the presence and absence of 20 mM DTT. For each RNA polymerase reaction, pTRI-Xef DNA was the template and UTP[α^32P] was included to measure the efficiency of transcription. Duplicates were performed for each reaction. TCA precipitations were performed on each transcription reaction to measure the percent of the UTP[α^32P] incorporated into RNA.
(§2) The transcription reactions were based on the MAXIscript™ transcription kit (Ambion, Inc.). The following were assembled with or without 20 mM reducing reagent in a final volume of 18 μl: NTPs (0.5 mM each), 1 μg linearized DNA template, 2 μl 10 × transcription buffer, and 0.2 μl UTP [α-^32P] (800 Ci/mmol). The reaction mixtures were incubated 60° C. for 10 minutes and then 2 μl of the either SP6, T7 or T3 RNA polymerase (10 units/μl) were added to the reactions, incubated 30° C. for 60 minutes and then TCA precipitated to assess the incorporation of the radioactive label.

T7 RNA polymerase = molecular target: T2, T7 RNA polymerase (Escherichia phage T7, UniProt P00573); assay: as above; assay type: biochemical; conditions: 20 mM reducing reagent
T2 construct: purchased Ambion, Inc
T2 sequence (P00573 whole entry): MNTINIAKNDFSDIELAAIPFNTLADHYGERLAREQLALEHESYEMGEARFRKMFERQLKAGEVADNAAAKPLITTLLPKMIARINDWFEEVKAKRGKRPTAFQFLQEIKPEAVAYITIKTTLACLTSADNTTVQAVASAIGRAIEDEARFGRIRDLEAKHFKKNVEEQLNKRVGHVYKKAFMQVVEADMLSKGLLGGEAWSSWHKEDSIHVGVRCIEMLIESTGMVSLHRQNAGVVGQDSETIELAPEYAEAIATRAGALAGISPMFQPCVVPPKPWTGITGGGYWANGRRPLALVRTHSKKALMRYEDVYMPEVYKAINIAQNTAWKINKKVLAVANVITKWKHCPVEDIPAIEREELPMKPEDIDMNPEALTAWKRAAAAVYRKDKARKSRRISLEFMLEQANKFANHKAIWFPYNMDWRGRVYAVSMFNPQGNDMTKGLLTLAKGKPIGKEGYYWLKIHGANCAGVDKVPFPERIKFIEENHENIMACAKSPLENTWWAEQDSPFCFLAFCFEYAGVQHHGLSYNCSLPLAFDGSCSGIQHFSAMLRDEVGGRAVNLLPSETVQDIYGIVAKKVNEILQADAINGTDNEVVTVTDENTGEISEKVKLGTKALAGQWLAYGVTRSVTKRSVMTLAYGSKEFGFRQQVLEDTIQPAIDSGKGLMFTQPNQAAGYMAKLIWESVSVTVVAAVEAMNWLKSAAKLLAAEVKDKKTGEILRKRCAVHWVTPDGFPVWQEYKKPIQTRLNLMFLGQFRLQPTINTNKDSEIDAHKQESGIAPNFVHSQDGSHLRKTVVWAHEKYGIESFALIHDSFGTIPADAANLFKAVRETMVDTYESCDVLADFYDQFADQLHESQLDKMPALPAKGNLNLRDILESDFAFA
Procedure: as §1, §2

SMILES: O[C@H](CS)[C@H](O)CS [DTT, dithiothreitol]
- inhibition of SP6 RNA polymerase transcription (SP6 RNA polymerase): does not inhibit; also recorded: None of the three polymerases were inhibited
- inhibition of T7 RNA polymerase transcription (T7 RNA polymerase): does not inhibit; also recorded: None of the three polymerases were inhibited
